One assay deals with A549. As to the kind of experiment: Cytotoxicity against human A549 cells after 24 hrs. Format: functional, cell-based. To be noted: A549, 24 h.
A further assay deals with HCT-116. Description: Cytotoxicity against human HCT116 cells after 24 hrs. Format: functional, cell-based. As to conditions: HCT-116, 24 h.

Values after ≈ are worked out from the molar mass of the structure shown.

In the case of `COc1ccc2cc(N(C)C(=O)C3=NO[C@H]4[C@H](O)C=C[C@@H](O)[C@@]4(O)C3)c(=O)oc2c1OC` [TRICHODERMAMIDE C], the IC50 with A549 was 4.28 µg/mL (≈ 9.59 µM); with HCT-116 it was 0.68 µg/mL (≈ 1.52 µM).

Broadly, the IC50 is the concentration at which inhibition is half-maximal.

Values taken from ChEMBL document CHEMBL1145624, “The isolation, structure determination and cytotoxicity of the new fungal metabolite, trichodermamide C” (Bioorg Med Chem Lett, 2008).
